Laboratory results taken from patent US10806761B2, “Oncolytic HSV1 vector and methods of use” (THE BRIGHAM AND WOMEN'S HOSPITAL, INC., priority 2015, dated 2020).

System: gliomas
Conditions: single dose administered two days before rQNestin34.5v.2
Source text: Mammals are able to rapidly counteract HSV1 in the brain through their initial immune responses.

O=P1(N(CCCl)CCCl)NCCCO1 (centres unmarked) [cyclophosphamide]
effect on viral biodistribution, replication and efficacy: significantly enhances viral biodistribution, replication and efficacy
reduction of the dose of virus required to produce a survival effect: two orders of magnitude
